# Reference: paper PMC2785468, “Androgen Receptor Mutations Associated with Androgen Insensitivity Syndrome: A High Content Analysis Approach Leading to Personalized Medicine” (PLoS ONE, 2009)
# Molecular target: T1, wild type AR (Homo sapiens, UniProt P10275)
# T1 construct: expressed in transfected cells
# T1 sequence (P10275 1-920): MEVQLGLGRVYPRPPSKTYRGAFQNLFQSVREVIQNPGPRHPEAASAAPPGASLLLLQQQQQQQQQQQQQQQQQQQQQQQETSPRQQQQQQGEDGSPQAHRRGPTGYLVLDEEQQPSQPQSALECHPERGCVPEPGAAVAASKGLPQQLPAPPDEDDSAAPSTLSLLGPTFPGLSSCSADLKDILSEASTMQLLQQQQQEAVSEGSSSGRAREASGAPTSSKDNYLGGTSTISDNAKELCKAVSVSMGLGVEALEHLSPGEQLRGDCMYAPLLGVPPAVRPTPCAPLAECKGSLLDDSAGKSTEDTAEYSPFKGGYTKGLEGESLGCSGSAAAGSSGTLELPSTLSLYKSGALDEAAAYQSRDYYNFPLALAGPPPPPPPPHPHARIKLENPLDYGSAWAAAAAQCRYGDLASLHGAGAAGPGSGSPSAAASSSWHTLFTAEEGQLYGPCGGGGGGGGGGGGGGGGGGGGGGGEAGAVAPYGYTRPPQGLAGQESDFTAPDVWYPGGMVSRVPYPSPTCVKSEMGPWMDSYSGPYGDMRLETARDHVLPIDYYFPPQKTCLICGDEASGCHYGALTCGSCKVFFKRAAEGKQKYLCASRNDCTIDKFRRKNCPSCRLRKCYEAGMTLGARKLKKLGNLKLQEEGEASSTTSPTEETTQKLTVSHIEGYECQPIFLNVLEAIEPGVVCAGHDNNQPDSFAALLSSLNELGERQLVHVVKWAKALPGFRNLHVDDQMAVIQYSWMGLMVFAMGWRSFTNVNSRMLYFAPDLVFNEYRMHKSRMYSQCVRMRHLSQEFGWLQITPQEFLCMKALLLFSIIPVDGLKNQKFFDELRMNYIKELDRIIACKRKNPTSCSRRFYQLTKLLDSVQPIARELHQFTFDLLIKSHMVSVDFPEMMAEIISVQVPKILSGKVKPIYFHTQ
# Assay type: cell-based
# Procedure: To determine the global effect of the various AIS mutations on AR signaling, each was analyzed using HCA. This technology allows simultaneous quantification of AR protein expression, nuclear translocation, subnuclear patterning, and transcriptional activity. The analysis was done in HeLa cell lines stably transfected with wild type or mutant ARs fused with green fluorescent protein, or using AR immunofluorescence in primary cultures of genital skin fibroblasts generated from foreskin biopsies of historical AIS patients, or of normal neonates undergoing circumcision at birth. To prevent the effects of receptor over-expression, stable HeLa cells were carefully selected to express AR levels similar to LNCaP as previously described. Prior to ligand treatment, HeLa cells were transfected with the pARR2PB-dsRED2skl reporter plasmid, consisting of the AR responsive promoter ARR2PB [31] driving expression of the red fluorescent protein reporter dsRED2skl engineered to target peroxisomes.
# For studies utilizing HeLa GFP-AR cell lines, twenty-four hours before transfection with pARR2PB-dsRED2skl, cells were plated onto 100 mm plastic dishes in medium supplemented with 5% charcoal-stripped and dialyzed-FBS. Transient introduction of the pARR-2PB-dsRED2skl reporter construct was performed using 6.0 µg reporter plasmid and 6.0 µg carrier DNA (BlueScript, Stratagene, San Diego, CA) using Transfectin (Biorad) following standard protocols. After 8-hour incubation, DNA/lipid complexes were removed. Cells were then trypsinized and replated at 10,000 cells per well in Nunc poly-D-lysine treated 96-well optical glass bottom plates and incubated an additional 12 hours to allow for cell adhesion. […] Compound dilutions and final addition to multi-well plates were performed using a Beckman Biomek NX robotic platform to ensure repeatability from experiment to experiment. After incubation was complete, using the Biomek NX robot, plates were washed with PBS and fixed for 20 min at RT in 4% formaldehyde prepared in CSK buffer (80 mM potassium PIPES, pH 6.8, 5 mM EGTA, 2 mM MgCl2). After fixation, cells were briefly permeabilized (5 min) with 0.5% Triton-X and prepared for imaging by washing in PBS, aspirating the washed solution, and adding a 1 ng/ml DAPI solution to stain DNA and a generic protein stain (CellMask, Invitrogen) to facilitate cell and nuclear image segmentation. Cells were imaged in PBS.
# Cells were imaged using the Cell Lab IC-100 Image Cytometer (IC-100; Beckman Coulter) platform that consists of 1) Nikon Eclipse TE2000-U Inverted Microscope (Nikon; Melville, NY); 2) Chroma 82000 triple band filter set (Chroma; Brattleboro, VT); 3) an imaging camera: Hamamatsu ORCA-ER Digital CCD camera (Hamamatsu; Bridgewater, NJ); and 4) a focusing camera: Photonics COHU Progressive scan camera (Photonics; Oxford, MA). […] In general, 49 to 64 images were captured per well for image analysis.
# Initially, the background signal was removed from all images using plate- and channel-specific correction images, generated by the sum projection of >600 randomly selected images for each channel from the image set. This allows for a pixel-by-pixel background subtraction that compensates any consistent uneven background artifacts in the image set. Furthermore, users are able to customize the degree of background subtraction by applying a multiplier to each correction image, useful for identification of objects such as nuclei or cell borders. […]
smiles,measurement,setting,value
"C[C@@H]1CC2=CC(=O)CC[C@@H]2[C@H]2CC[C@@]3(C)[C@@H](CC[C@]3(C)O)[C@@H]21 [Mb, Mibolerone]","Percent Signal in Nucleus, Max","HeLa Wild Type, % signal present in the nucleus, Mean±S.E.M.",80.5±1.9%
same,"Hyperspeckling, Max","HeLa Wild Type, absolute numerical measurement",1101±61
same,"Transcriptional Activity, Max","HeLa Wild Type, pARR2PB-dsRED2skl reporter, absolute numerical measurement",113±1.4
same,increase in the percent of the GFP signal in the nucleus,"HeLa wild type GFP-AR, vs untreated",approximately 30%
same,factor between EC50 for nuclear translocation and EC50 for hyperspeckling and transcriptional activity,"HeLa-AR cells, 1440 min",approximately 30 fold
